Measurements reported in patent publication US8741350B2, “Taste masked pharmaceutical composition” (Boehringer Ingelheim Vetmedica GmbH, priority 2011, dated 2014).
Read-outs that look alike come from different tables or passages of the source.

Legend:
[1] = Water solubility (statement); type: physicochemical
[2] = background statement; cited from earlier work
[3] = Lipophilicity profile (statement); type: physicochemical; settings: neutral versus acidic pH

CC#CCn1c(N2CCC[C@@H](N)C2)nc2c1c(=O)n(Cc1ncccc1C#N)c(=O)n2C.Cl [1-[(3-cyano-pyridin-2-yl)methyl]-3-methyl-7-(2-butyn-1-yl)-8-[3-(R)-amino-piperidin-1-yl]-xanthine monohydrochloride]
water solubility in words [1]: water soluble

COc1ccc(CCN2CCC[C@H](CN3CCc4cc(OC)c(OC)cc4CC3=O)C2)cc1OC [Cilobradine]
water solubility in words [2]: highly water-soluble

COc1ccc(CCN2CCC[C@H](CN3CCc4cc(OC)c(OC)cc4CC3=O)C2)cc1OC.Cl [cilobradine hydrochloride]
lipophilicity profile in words [3]: slightly more lipophilic at neutral pH values
water solubility in words [2]: highly water-soluble
